Source: ChEMBL document CHEMBL1201862, “PubChem BioAssay data set” (2004)
The source made the active and inactive calls.

Columns and labels:
INS1 = assay: INS-1E survival protection against cytokine death – cell-based, luminescence, retest, dose response (AID 449756); type: functional; settings: Rattus norvegicus;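 note: cell death triggered by IL-1 beta plus TNF-alpha plus IFN-gamma mixture; protective hits raise ATP signal compared with cytokine alone wells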
[1] = target: Luciferin 4-monooxygenase (Photinus pyralis, UniProt P08659); assay: inhibition of purified Photinus pyralis luciferase – biochemical, luminescence, dose response (AID 1891)
Luciferin 4-monooxygenase, sequence (P08659 whole entry): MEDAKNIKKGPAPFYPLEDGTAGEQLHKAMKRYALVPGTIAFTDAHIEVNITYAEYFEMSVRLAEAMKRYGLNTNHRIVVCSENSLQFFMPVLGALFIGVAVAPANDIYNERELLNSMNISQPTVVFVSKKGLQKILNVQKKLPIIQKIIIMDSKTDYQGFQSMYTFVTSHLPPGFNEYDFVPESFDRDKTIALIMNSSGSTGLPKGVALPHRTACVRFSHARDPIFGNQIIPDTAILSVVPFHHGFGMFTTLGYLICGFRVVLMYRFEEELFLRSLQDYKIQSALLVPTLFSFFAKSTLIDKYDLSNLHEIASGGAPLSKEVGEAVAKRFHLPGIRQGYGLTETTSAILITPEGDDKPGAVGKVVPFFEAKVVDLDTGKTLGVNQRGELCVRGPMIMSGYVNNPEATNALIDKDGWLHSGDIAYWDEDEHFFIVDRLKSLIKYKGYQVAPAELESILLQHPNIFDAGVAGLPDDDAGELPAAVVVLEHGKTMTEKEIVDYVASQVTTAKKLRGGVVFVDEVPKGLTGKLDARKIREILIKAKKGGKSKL

[2] = Luminescence Cell-Based Dose Confirmation HTS to Identify Inhibitors of Platelet Dense Granule Release. [Related pubchem assays: 1663 (Primary HTS), 1678 (Summary of Project)]; type: functional
[3] = target: T1, Corticotropin-releasing factor receptor 2/Corticotropin-releasing factor-binding protein (Homo sapiens, UniProt P24387+Q13324); assay: activators of CRF receptor 2 with binding protein – uHTS hits, confirmation (AID 602473); type: functional; settings: read-out: EC50_Mean
T1 sequence (Q13324 whole entry): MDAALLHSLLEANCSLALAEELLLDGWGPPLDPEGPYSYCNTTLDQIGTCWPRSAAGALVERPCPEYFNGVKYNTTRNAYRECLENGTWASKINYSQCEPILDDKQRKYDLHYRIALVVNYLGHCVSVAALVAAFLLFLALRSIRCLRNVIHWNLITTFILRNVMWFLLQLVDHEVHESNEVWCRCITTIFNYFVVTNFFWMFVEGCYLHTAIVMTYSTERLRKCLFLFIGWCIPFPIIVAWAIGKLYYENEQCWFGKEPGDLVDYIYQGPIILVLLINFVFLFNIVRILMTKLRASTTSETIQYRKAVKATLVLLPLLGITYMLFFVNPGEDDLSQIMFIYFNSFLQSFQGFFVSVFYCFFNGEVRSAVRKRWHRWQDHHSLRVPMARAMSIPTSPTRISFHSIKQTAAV
T1 sequence (P24387 whole entry): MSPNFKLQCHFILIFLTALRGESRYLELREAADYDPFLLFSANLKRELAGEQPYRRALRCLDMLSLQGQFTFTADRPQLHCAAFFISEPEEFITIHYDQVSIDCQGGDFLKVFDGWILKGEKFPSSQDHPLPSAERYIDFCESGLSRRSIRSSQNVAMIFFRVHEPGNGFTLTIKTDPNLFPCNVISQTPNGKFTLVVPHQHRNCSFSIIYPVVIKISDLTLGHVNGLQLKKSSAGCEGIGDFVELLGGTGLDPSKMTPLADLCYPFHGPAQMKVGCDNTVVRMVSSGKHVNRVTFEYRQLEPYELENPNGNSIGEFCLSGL

[4] = target: T1, Corticotropin-releasing factor receptor 2/Corticotropin-releasing factor-binding protein; assay: Dose Response confirmation of uHTS hits for small molecule antagonists of the CRF-binding protein and CRF-R2 receptor complex.; type: functional; settings: read-out: IC50_Mean
Cytochrome P450 3A4 = Cytochrome P450 3A4 (Homo sapiens, UniProt P08684);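 note: CYP3A4 tested as one member of a cytochrome P450 panel screen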
Cytochrome P450 3A4, sequence (P08684 whole entry): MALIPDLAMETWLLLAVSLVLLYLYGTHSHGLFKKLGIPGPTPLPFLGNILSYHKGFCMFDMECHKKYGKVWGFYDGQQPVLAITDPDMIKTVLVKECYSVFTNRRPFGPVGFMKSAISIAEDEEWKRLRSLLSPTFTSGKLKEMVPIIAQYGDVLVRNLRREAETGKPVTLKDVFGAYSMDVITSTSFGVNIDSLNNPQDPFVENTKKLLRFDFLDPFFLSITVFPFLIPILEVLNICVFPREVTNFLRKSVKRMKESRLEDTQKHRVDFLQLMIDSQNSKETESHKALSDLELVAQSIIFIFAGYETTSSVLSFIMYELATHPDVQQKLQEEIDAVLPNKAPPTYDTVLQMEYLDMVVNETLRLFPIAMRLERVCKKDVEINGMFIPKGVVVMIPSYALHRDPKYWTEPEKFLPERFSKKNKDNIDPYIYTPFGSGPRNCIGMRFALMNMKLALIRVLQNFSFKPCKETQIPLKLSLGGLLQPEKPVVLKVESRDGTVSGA

Cytochrome P450 2C9 = Cytochrome P450 2C9 (Homo sapiens, UniProt P11712)
Cytochrome P450 2C9, sequence (P11712 whole entry): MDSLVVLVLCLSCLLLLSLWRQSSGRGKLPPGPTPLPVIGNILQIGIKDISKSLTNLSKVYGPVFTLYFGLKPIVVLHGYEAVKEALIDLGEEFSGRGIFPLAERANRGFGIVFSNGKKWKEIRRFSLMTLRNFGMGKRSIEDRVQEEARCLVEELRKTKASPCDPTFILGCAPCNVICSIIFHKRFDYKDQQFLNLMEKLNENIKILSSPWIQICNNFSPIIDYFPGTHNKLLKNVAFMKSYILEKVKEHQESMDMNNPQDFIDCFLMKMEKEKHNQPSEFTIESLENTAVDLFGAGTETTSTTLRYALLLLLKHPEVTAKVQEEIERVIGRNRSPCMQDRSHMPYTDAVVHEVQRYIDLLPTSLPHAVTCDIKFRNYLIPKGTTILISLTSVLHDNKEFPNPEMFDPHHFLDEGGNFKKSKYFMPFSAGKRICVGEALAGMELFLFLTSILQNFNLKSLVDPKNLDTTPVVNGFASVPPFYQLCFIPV

Cytochrome P450 1A2 = target: T2, Cytochrome P450 1A2 (Homo sapiens, UniProt P05177);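 note: PubChem cytochrome P450 panel assay, CYP1A2 panel member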
T2 sequence (P05177 whole entry): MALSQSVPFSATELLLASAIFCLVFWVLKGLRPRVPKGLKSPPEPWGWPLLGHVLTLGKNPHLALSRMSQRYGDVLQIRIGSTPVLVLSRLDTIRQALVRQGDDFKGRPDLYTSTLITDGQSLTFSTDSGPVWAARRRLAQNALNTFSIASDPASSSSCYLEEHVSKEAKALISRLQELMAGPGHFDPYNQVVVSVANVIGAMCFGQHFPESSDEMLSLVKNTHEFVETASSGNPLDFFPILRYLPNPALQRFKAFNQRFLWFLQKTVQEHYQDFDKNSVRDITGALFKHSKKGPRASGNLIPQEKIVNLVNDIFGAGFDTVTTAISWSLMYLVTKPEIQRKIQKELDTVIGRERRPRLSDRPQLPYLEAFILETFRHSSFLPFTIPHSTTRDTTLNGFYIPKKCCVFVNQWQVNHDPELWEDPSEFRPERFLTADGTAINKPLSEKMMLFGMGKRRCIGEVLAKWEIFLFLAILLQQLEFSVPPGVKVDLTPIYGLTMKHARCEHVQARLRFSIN

[5] = viability of uninfected HEp-2 cells – cell-based, HTS, cytotoxicity control for RSV inhibitor project, dose response (AID 2410); type: functional; settings: human respiratory syncytial virus
Cytochrome P450 2D6 = Cytochrome P450 2D6 (Homo sapiens, UniProt P10635);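 note: CYP2D6 member of a cytochrome P450 panel assay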
Cytochrome P450 2D6, sequence (P10635 whole entry): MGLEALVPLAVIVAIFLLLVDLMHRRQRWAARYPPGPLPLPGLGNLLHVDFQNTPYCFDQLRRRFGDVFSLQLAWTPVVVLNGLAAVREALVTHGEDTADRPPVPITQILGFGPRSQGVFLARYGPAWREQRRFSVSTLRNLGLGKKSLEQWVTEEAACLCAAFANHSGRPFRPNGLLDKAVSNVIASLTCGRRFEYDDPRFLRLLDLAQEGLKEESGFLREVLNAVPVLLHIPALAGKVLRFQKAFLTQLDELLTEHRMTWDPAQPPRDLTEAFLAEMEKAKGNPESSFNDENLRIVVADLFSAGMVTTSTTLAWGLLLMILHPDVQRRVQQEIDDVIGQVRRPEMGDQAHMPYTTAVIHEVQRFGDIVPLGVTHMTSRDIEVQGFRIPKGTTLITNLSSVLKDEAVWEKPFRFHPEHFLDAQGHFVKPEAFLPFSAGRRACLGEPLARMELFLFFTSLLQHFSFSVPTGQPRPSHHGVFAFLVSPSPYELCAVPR

Cytochrome P450 2C19 = Cytochrome P450 2C19 (Homo sapiens, UniProt P33261); assay: Cytochrome panel assay with activity outcomes. Panel member name: p450-cyp2c19 Compounds with AC50 equal or less than 10 uM are considered active; type: functional; settings: read-out: AC50
Cytochrome P450 2C19, sequence (P33261 whole entry): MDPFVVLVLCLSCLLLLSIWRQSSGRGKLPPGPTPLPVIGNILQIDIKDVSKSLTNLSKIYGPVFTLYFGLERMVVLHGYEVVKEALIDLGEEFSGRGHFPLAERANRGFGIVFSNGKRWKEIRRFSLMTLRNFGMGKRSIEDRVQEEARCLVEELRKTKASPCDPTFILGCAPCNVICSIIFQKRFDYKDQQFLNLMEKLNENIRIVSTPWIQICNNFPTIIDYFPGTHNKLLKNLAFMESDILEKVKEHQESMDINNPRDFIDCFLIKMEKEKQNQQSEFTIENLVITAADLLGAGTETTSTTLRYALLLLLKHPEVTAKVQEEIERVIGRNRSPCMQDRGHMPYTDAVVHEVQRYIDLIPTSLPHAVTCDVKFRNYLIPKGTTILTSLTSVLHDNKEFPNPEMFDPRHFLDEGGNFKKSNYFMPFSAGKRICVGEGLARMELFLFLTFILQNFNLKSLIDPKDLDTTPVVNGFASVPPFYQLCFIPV

[6] = Luminescence Cell-Based Dose Retest to Confirm Inhibitors of Cancer Stem Cells. [Related pubchem assays (depositor defined):AID2717, AID2721]; type: functional; settings: Homo sapiens
Streptokinase A = target: T3, Streptokinase A (Streptococcus pyogenes serotype M1, UniProt P10520); assay: viability-normalized secreted streptokinase activity reduction – plasminogen activation absorbance, OD405, dose response (AID 1914); type: functional, Streptococcus pyogenes M1 GAS;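 note: secreted streptokinase activity via plasminogen activation per viability signal from cell pellet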
T3 sequence (P10520 whole entry): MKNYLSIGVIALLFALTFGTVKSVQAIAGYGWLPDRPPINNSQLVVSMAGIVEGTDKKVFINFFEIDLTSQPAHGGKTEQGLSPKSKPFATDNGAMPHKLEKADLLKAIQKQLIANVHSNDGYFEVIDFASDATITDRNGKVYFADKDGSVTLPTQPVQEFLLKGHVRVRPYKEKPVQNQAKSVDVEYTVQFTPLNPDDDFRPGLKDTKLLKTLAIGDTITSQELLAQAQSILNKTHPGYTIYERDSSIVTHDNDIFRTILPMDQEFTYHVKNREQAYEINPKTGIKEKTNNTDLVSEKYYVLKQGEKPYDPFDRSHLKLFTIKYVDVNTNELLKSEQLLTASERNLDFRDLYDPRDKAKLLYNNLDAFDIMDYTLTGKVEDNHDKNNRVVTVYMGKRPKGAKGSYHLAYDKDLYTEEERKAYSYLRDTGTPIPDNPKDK

[7] = system: Streptococcus sp. 'group A'; assay: Streptococcus pyogenes SK(-)GAS viability under kanamycin – luminescence, BacTiterGlo, confirmation, counter-screen for streptokinase expression inhibitor project, dose response (AID 1900); type: functional, organism-based
Streptococcus = assay: GAS UMAA2166 growth inhibition – luminescence, BacTiterGlo, counter-screen for streptokinase expression inhibitor project, dose response (AID 1915); type: functional, organism-based;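 note: potency for reduction of bacterial viability or growth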

In the case of `O=[N+]([O-])c1ccc(N2CCN(C(S)=Nc3ccc(F)cc3)CC2)cc1`, the AC50 (INS1) was 33.9 µM (active).

In the case of `COc1ccc(-c2csc(CCn3nc(C)cc3C)n2)cc1`, the EC50 [1] was > 112 µM (not active) and the EC50 [2] was > 112 µM (not active).

With `CCOc1ccc(NC(=O)CSc2ccc3nnc(-c4cccnc4)n3n2)cc1` the EC50 [3] was > 53 µM (inactive) and the IC50 [4] was > 47.1 µM (inactive).

With `Cc1cc(NC(=O)c2cc3ncc(Br)cn3n2)no1` the EC50 [1] was > 112 µM (not active) and the EC50 [2] was > 112 µM (not active).

With `Cc1cccc(NC(=O)Cn2c(/C=C/c3ccccc3)nc3ccccc32)c1` the AC50 (INS1) was 30.6 µM (active).

In the case of `O=C(COC(=O)C1CCN(S(=O)(=O)c2ccc3c(c2)OCCO3)CC1)NC1CCS(=O)(=O)C1` (configuration not stated), the EC50 [3] was > 53 µM (inactive) and the IC50 [4] was > 47.1 µM (inactive).

With `CN(C)C(=O)c1ccc(-c2nccc(Nc3ccc(F)cc3)n2)cc1` the AC50 (Cytochrome P450 3A4) was 10 µM (inconclusive).

For `O=C(CSc1nncn1-c1ccccc1)Nc1ccc(N2CCOCC2)cc1`, the AC50 (Cytochrome P450 2C9) was 12.6 µM (inconclusive), the AC50 (Cytochrome P450 1A2) was 39.8 µM (inconclusive) and the AC50 (Cytochrome P450 3A4) was 3.16 µM (inconclusive).

For `CCC(CO)Nc1nc2ccc(Cl)cc2c2ccccc12` (configuration not stated), the CC50 [5] was 14.5 µM (active).

In the case of `COc1ccccc1C(=O)Nc1ccc(S(=O)(=O)N2CCCCC2c2cccnc2)cc1` (configuration not stated), the CC50 [5] was 31.9 µM (active).

In the case of `Cc1ccccc1C(=O)c1c[nH]c(C(=O)NCc2cccs2)c1`, the AC50 (Cytochrome P450 2C9) was 3.55 µM (inconclusive), the AC50 (Cytochrome P450 2D6) was 14.1 µM (inconclusive) and the AC50 (Cytochrome P450 3A4) was 22.4 µM (inconclusive). The AC50 (Cytochrome P450 2C19) was 25.1 µM (inconclusive).

In the case of `COc1ccc2oc(C(=O)NCCC(C)C)c(C)c2c1`, the EC50 [3] was > 53 µM (inactive) and the IC50 [4] was > 47.1 µM (inactive).

With `Nc1ccc(C(=O)c2cccs2)cc1[N+](=O)[O-]` the CC50 [5] was 36.8 µM (active).

In the case of `CCCn1c(C(C)Nc2nc(-c3ccc(Cl)c([N+](=O)[O-])c3)cs2)nc2ccccc21` (configuration not stated), the CC50 [5] was 29.7 µM (active).

With `O=C(NC(=S)Nc1ccccc1N1CCCCC1)c1ccc(F)cc1Cl` the AC50 [6] was 1.67 µM (active), the EC50 (Streptokinase A) was 5.06 µM (active) and the EC50 [7] was 3.75 µM (active). The EC50 (Streptococcus) was > 150 µM (not active).

With `COc1cc(C(=O)N2CCC(NC(=O)C(Cc3ccc(C(C)C)cc3)NC(C)=O)CC2)cc(OC)c1OC` (configuration not stated) the AC50 (Cytochrome P450 3A4) was 17.8 µM (inconclusive) and the AC50 (Cytochrome P450 2C19) was 22.4 µM (inconclusive).

With `O=C(CSc1nnc(-c2cccnc2)n1Cc1ccccc1)N1CCOCC1` the EC50 [1] was > 112 µM (not active) and the EC50 [2] was 17.2 µM (active).

With `O=C(c1ccccc1)c1nc2ccccc2nc1O` the EC50 [3] was > 53 µM (inactive) and the IC50 [4] was > 47.1 µM (inactive).

For `CCN(CC(=O)NCc1ccc(Cl)cc1)C(=O)CSc1ccc(Br)cc1`, the EC50 [1] was 43.9 µM (active) and the EC50 [2] was > 112 µM (not active).

With `COc1ccccc1NC(=O)C1=C(C)Nc2nnnn2C1c1ccccc1OC` (configuration not stated) the EC50 [1] was > 112 µM (not active) and the EC50 [2] was 72.3 µM (active).

With `COc1cccc(NC(=O)C2CCCN(S(=O)(=O)c3ccc(-n4cnnn4)cc3)C2)c1` (configuration not stated) the EC50 [3] was > 53 µM (inactive) and the IC50 [4] was > 47.1 µM (inactive).

In the case of `CCOC(=O)c1nnn(-c2nonc2N)c1CN(C)C1CCCCC1`, the EC50 [3] was > 53 µM (inactive) and the IC50 [4] was > 47.1 µM (inactive).
